Data reported in patent US11306078B2, “Piperidine CXCR7 receptor modulators” (IDORSIA PHARMACEUTICALS LTD., priority 2016, dated 2022).

target: human chemokine receptor CXCR7 (Homo sapiens (Human), UniProt P25106); assay: Tango CXCR7-bla U2OS beta-arrestin recruitment assay (beta-lactamase reporter, FRET), antagonism of CXCL12/SDF1-α; format: cell-based; conditions: antagonistic effect on CXCR7; Tango CXCR7-bla U2OS cells, CXCL12/SDF1-α at its EC80;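 note: compounds preincubated 15 min before CXCL12 addition, then 22 h at 37 °C, FRET emission ratio read with CCF4-AM substrate after 2 h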
Sequence (P25106 whole entry): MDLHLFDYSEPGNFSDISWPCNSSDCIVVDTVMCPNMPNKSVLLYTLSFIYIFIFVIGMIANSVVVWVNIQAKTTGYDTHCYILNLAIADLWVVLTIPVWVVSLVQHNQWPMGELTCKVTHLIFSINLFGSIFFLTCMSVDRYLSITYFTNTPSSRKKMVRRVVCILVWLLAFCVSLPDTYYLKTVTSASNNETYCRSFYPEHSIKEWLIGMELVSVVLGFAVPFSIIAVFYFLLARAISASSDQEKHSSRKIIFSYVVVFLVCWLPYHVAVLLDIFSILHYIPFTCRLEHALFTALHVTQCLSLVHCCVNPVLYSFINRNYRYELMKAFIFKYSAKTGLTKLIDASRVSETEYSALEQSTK

First: O=C(N[C@@H]1CCN(C2CCCCC2)C[C@H]1C(=O)NCc1ncccn1)c1cc(-c2ccc(F)cc2F)on1 (racemic) [Example 1.032, rac-(3R*,4R*)-1-Cyclohexyl-4-{[5-(2,4-difluoro-phenyl)-isoxazole-3-carbonyl]-amino}-piperidine-3-carboxylic acid (pyrimidin-2-ylmethyl)-amide]
Second: O=C(N[C@@H]1CCN(C2CCCCC2)C[C@H]1C(=O)NCc1cnccn1)c1cc(-c2ccc(F)cc2F)on1 (racemic) [Example 1.037, rac-(3R*,4R*)-1-Cyclohexyl-4-{[5-(2,4-difluoro-phenyl)-isoxazole-3-carbonyl]-amino}-piperidine-3-carboxylic acid (pyrazin-2-ylmethyl)-amide]
The IC50 of the first is 1.9-fold lower: 0.154 µM for the first, 0.295 µM for the second.

Going from `Cc1ncsc1CNC(=O)[C@@H]1CN(C2CCCCC2)CC[C@H]1NC(=O)c1cc(-c2ccc(F)cc2F)on1` (racemic) [Example 1.033, rac-(3R*,4R*)-1-Cyclohexyl-4-{[5-(2,4-difluoro-phenyl)-isoxazole-3-carbonyl]-amino}-piperidine-3-carboxylic acid (4-methyl-thiazol-5-ylmethyl)-amide] to `O=C(N[C@@H]1CCN(C2CCCCC2)C[C@H]1C(=O)NCc1nccs1)c1cc(-c2ccc(F)cc2F)on1` (racemic) [Example 1.051, rac-(3R*,4R*)-1-Cyclohexyl-4-{[5-(2,4-difluoro-phenyl)-isoxazole-3-carbonyl]-amino}-piperidine-3-carboxylic acid (thiazol-2-ylmethyl)-amide], the IC50 falls from 0.591 µM to 0.049 µM (12-fold).

`O=C(N[C@@H]1CCN(C2CCCCC2)C[C@H]1C(=O)NCc1ccncn1)c1cc(-c2ccc(F)cc2F)on1` (racemic) [Example 1.034, rac-(3R*,4R*)-1-Cyclohexyl-4-{[5-(2,4-difluoro-phenyl)-isoxazole-3-carbonyl]-amino}-piperidine-3-carboxylic acid (pyrimidin-4-ylmethyl)-amide] and `O=C(N[C@@H]1CCN(C2CCCCC2)C[C@H]1C(=O)NCc1c[nH]cn1)c1cc(-c2ccc(F)cc2F)on1` (racemic) [Example 1.043, rac-(3R*,4R*)-1-Cyclohexyl-4-{[5-(2,4-difluoro-phenyl)-isoxazole-3-carbonyl]-amino}-piperidine-3-carboxylic acid (1H-imidazol-4-ylmethyl)-amide] are within 1.5-fold of each other in IC50: 0.772 µM for the first, 0.843 µM for the second.

First: O=C(N[C@@H]1CCN(C2CCCCC2)C[C@H]1C(=O)NCc1cnco1)c1cc(-c2ccc(F)cc2F)on1 (racemic) [Example 1.035, rac-(3R*,4R*)-1-Cyclohexyl-4-{[5-(2,4-difluoro-phenyl)-isoxazole-3-carbonyl]-amino}-piperidine-3-carboxylic acid (oxazol-5-ylmethyl)-amide]
Second: O=C(N[C@@H]1CCN(C2CCCCC2)C[C@H]1C(=O)NCc1cccnc1)c1cc(-c2ccc(F)cc2F)on1 (racemic) [Example 1.048, rac-(3R*,4R*)-1-Cyclohexyl-4-{[5-(2,4-difluoro-phenyl)-isoxazole-3-carbonyl]-amino}-piperidine-3-carboxylic acid (pyridin-3-ylmethyl)-amide]
The IC50 of the first is 1.9-fold higher: 0.52 µM for the first, 0.275 µM for the second. The second is the more potent here.

`O=C(N[C@@H]1CCN(C2CCCCC2)C[C@H]1C(=O)N1CC(F)C1)c1cc(-c2ccc(F)cc2F)on1` (racemic) [Example 1.036, rac-5-(2,4-Difluoro-phenyl)-isoxazole-3-carboxylic acid [(3R*,4R*)-1-cyclohexyl-3-(3-fluoro-azetidine-1-carbonyl)-piperidin-4-yl]-amide] and `O=C(N[C@@H]1CCN(C2CCCCC2)C[C@H]1C(=O)N1CC(F)(F)C1)c1cc(-c2ccc(F)cc2F)on1` (racemic) [Example 1.052, rac-5-(2,4-Difluoro-phenyl)-isoxazole-3-carboxylic acid [(3R*,4R*)-1-cyclohexyl-3-(3,3-difluoro-azetidine-1-carbonyl)-piperidin-4-yl]-amide] are within 1.5-fold of each other in IC50: 0.693 µM for the first, 0.63 µM for the second.

First: O=C(N[C@@H]1CCN(C2CCCCC2)C[C@H]1C(=O)NCCOC(F)(F)F)c1cc(-c2ccc(F)cc2F)on1 (racemic) [Example 1.038, rac-(3R*,4R*)-1-Cyclohexyl-4-{[5-(2,4-difluoro-phenyl)-isoxazole-3-carbonyl]-amino}-piperidine-3-carboxylic acid (2-trifluoromethoxy-ethyl)-amide]
Second: O=C(N[C@@H]1CCN(C2CCCCC2)C[C@H]1C(=O)NCCN1CCCC1=O)c1cc(-c2ccc(F)cc2F)on1 (racemic) [Example 1.041, rac-(3R*,4R*)-1-Cyclohexyl-4-{[5-(2,4-difluoro-phenyl)-isoxazole-3-carbonyl]-amino}-piperidine-3-carboxylic acid [2-(2-oxo-pyrrolidin-1-yl)-ethyl]-amide]
The IC50 of the first is 5.4-fold higher: 0.49 µM for the first, 0.091 µM for the second. The second is the more potent here.

Going from `CN(CC1COC1)C(=O)[C@@H]1CN(C2CCCCC2)CC[C@H]1NC(=O)c1cc(-c2ccc(F)cc2F)on1` (racemic) [Example 1.039, rac-(3R*,4R*)-1-Cyclohexyl-4-{[5-(2,4-difluoro-phenyl)-isoxazole-3-carbonyl]-amino}-piperidine-3-carboxylic acid methyl-oxetan-3-ylmethyl-amide] to `CC(C)N(CCOCCO)C(=O)[C@@H]1CN(C2CCCCC2)CC[C@H]1NC(=O)c1cc(-c2ccc(F)cc2F)on1` (racemic) [Example 1.055, rac-(3R*,4R*)-1-Cyclohexyl-4-{[5-(2,4-difluoro-phenyl)-isoxazole-3-carbonyl]-amino}-piperidine-3-carboxylic acid [2-(2-hydroxy-ethoxy)-ethyl]-isopropyl-amide], the IC50 falls from 0.492 µM to 0.232 µM (2.1-fold). The second is the more potent here.

`Cn1ccc(CNC(=O)[C@@H]2CN(C3CCCCC3)CC[C@H]2NC(=O)c2cc(-c3ccc(F)cc3F)on2)n1` (racemic) [Example 1.042, rac-(3R*,4R*)-1-Cyclohexyl-4-{[5-(2,4-difluoro-phenyl)-isoxazole-3-carbonyl]-amino}-piperidine-3-carboxylic acid (1-methyl-1H-pyrazol-3-ylmetyl)-amide] and `Cc1cc(CNC(=O)[C@@H]2CN(C3CCCCC3)CC[C@H]2NC(=O)c2cc(-c3ccc(F)cc3F)on2)nn1C` (racemic) [Example 1.045, rac-(3R*,4R*)-1-Cyclohexyl-4-{[5-(2,4-difluoro-phenyl)-isoxazole-3-carbonyl]-amino}-piperidine-3-carboxylic acid (1,5-dimethyl-1H-pyrazol-3-ylmethyl)-amide] are within 1.5-fold of each other in IC50: 0.532 µM for the first, 0.565 µM for the second.

Going from `CCc1noc(CNC(=O)[C@@H]2CN(C3CCCCC3)CC[C@H]2NC(=O)c2cc(-c3ccc(F)cc3F)on2)n1` (racemic) [Example 1.047, rac-(3R*,4R*)-1-Cyclohexyl-4-{[5-(2,4-difluoro-phenyl)-isoxazole-3-carbonyl]-amino}-piperidine-3-carboxylic acid (3-ethyl-[1,2,4]oxadiazol-5-ylmethyl)-amide] to `Cc1cc(CNC(=O)[C@@H]2CN(C3CCCCC3)CC[C@H]2NC(=O)c2cc(-c3ccc(F)cc3F)on2)n(C)n1` (racemic) [Example 1.054, rac-(3R*,4R*)-1-Cyclohexyl-4-{[5-(2,4-difluoro-phenyl)-isoxazole-3-carbonyl]-amino}-piperidine-3-carboxylic acid (2,5-dimethyl-2H-pyrazol-3-ylmethyl)-amide], the IC50 rises from 0.127 µM to 0.311 µM (2.4-fold). The first is the more potent here.

First: Cc1ccccc1CCNC(=O)[C@@H]1CN(C2CCCCC2)CC[C@H]1NC(=O)c1cc(-c2ccc(F)cc2F)on1 (racemic) [Example 1.056, rac-(3R*,4R*)-1-Cyclohexyl-4-{[5-(2,4-difluoro-phenyl)-isoxazole-3-carbonyl]-amino}-piperidine-3-carboxylic acid (2-o-tolyl-ethyl)-amide]
Second: O=C(N[C@@H]1CCN(C2CCCCC2)C[C@H]1C(=O)NCCc1ccccc1Cl)c1cc(-c2ccc(F)cc2F)on1 (racemic) [Example 1.058, rac-(3R*,4R*)-1-Cyclohexyl-4-{[5-(2,4-difluoro-phenyl)-isoxazole-3-carbonyl]-amino}-piperidine-3-carboxylic acid [2-(2-chloro-phenyl)-ethyl]-amide]
The IC50 of the first is 4-fold higher: 0.004 µM for the first, 0.001 µM for the second. The second is the more potent here.

Going from `COc1ccccc1CCNC(=O)[C@@H]1CN(C2CCCCC2)CC[C@H]1NC(=O)c1cc(-c2ccc(F)cc2F)on1` (racemic) [Example 1.057, rac-(3R*,4R*)-1-Cyclohexyl-4-{[5-(2,4-difluoro-phenyl)-isoxazole-3-carbonyl]-amino}-piperidine-3-carboxylic acid [2-(2-methoxy-phenyl)-ethyl]-amide] to `Cc1cccc(CCNC(=O)[C@@H]2CN(C3CCCCC3)CC[C@H]2NC(=O)c2cc(-c3ccc(F)cc3F)on2)c1` (racemic) [Example 1.066, rac-(3R*,4R*)-1-Cyclohexyl-4-{[5-(2,4-difluoro-phenyl)-isoxazole-3-carbonyl]-amino}-piperidine-3-carboxylic acid (2-m-tolyl-ethyl)-amide], the IC50 rises from 0.001 µM to 0.016 µM (16-fold). The first is the more potent here.

First: O=C(N[C@@H]1CCN(C2CCCCC2)C[C@H]1C(=O)NCCc1ccc(F)cc1)c1cc(-c2ccc(F)cc2F)on1 (racemic) [Example 1.059, rac-(3R*,4R*)-1-Cyclohexyl-4-{[5-(2,4-difluoro-phenyl)-isoxazole-3-carbonyl]-amino}-piperidine-3-carboxylic acid [2-(4-fluoro-phenyl)-ethyl]-amide]
Second: Cc1ccc(CCNC(=O)[C@@H]2CN(C3CCCCC3)CC[C@H]2NC(=O)c2cc(-c3ccc(F)cc3F)on2)cc1 (racemic) [Example 1.062, rac-(3R*,4R*)-1-Cyclohexyl-4-{[5-(2,4-difluoro-phenyl)-isoxazole-3-carbonyl]-amino}-piperidine-3-carboxylic acid (2-p-tolyl-ethyl)-amide]
The IC50 of the first is 8.8-fold higher: 0.14 µM for the first, 0.016 µM for the second. The second is the more potent here.

Compared with `Cc1nc(NC(=O)[C@@H]2CN(C3CCCCC3)CC[C@H]2NC(=O)c2cc(-c3ccc(F)cc3F)on2)sc1C` (racemic) [Example 1.065, rac-(3R*,4R*)-1-Cyclohexyl-4-{[5-(2,4-difluoro-phenyl)-isoxazole-3-carbonyl]-amino}-piperidine-3-carboxylic acid (4,5-dimethyl-thiazol-2-yl)-amide], `O=C(N[C@@H]1CCN(C2CCCCC2)C[C@H]1C(=O)Nc1cccnc1)c1cc(-c2ccc(F)cc2F)on1` (racemic) [Example 1.067, rac-(3R*,4R*)-1-Cyclohexyl-4-{[5-(2,4-difluoro-phenyl)-isoxazole-3-carbonyl]-amino}-piperidine-3-carboxylic acid pyridin-3-ylamide] is 1.8-fold lower in IC50: 0.567 µM for the first, 0.319 µM for the second. The second is the more potent here.
